Measurements: patent US12029776B2, “Composition for treating cancer and use and medicament thereof” (NEWISH TECHNOLOGY (BEIJING) CO., LTD., priority 2020, dated 2024)
Structures can show the parent of a compound that is named as a salt.

Columns and labels:
liver cancer cell line = assay: VEGFR2 inhibitors in combination with the SGLT1 inhibitor on the liver cancer cell line (Example 2); type: cell-based; conditions: combined with SGLT1 inhibitor sotagliflozin, FIG. 11-1 to 11-30
Description: Dimethyl sulfoxide (DMSO) can dissolve formazan in cells, and its light absorption value measured at 570 nm wavelength with an enzyme-linked immunodetector can indirectly reflect the number of living cells. Cell growth was determined by 3-(4,5-dimethylthiazol-2-yl)-2,5-diphenyltetrazolium bromide (MTT) assay in a 96-well plate. Specifically, the cells were digested and counted, and then resuspended into a system containing 5000 cells per 200 μL of culture medium and seeded in each well of a 96-well plate. The next day, the medium was replaced with a medium containing different concentrations of sotagliflozin, apatinib, lenvatinib, and the composition of them. After 48 or 72 hours of incubation with the drugs, 20 μL of MTT reagent was added to each well and incubated for 2 hours. After discarding the medium, the formazan deposit in the cells was dissolved in 100 μL of DMSO. The absorbance was measured at 570 nm by a microplate reader. Samples were used in quadruplicate in each group.

[1] = tested on: transplanted tumor of the liver cancer cell line Hep3B; assay: Efficacy on the transplanted tumor in nude mice; conditions: FIG. 10
Description: Hep3B cells were cultured with 10% serum DMEM medium and were digested and counted after they grew into the logarithmic phase. […] Therefore, the present invention adopted a dose of 5*10e6 cells per nude mouse, and administration was performed in groups after the tumors grew into an average volume of 100 mm^3 in about 21 days. The administration was divided into a solvent control group, an apatinib 50 mg/kg oral administration group, a sotagliflozin 20 mg/kg intraperitoneal injection group, and a combination group of simultaneous apatinib 50 mg/kg oral administration and sotagliflozin 20 mg/kg intraperitoneal injection. The administration cycle was once every other day, and the tumor volumes were measured every Tuesday and Friday and calculated according to the formula V=a*b^2/2 (a is the measured long diameter of the tumor, b is the measured short diameter of the tumor). A graph was mapped using Graphpad prism 5 and the measurement results were analyzed statistically.

Cc1cc(Nc2cc(N3CCN(C)CC3)nc(/C=C/c3ccccc3)n2)n[nH]1.O=C(O)C(O)C(O)C(=O)O [ENMD-2076 L-(+)-tartaric acid]
tumor suppressive effect in combination with the SGLT1 inhibitor compared with single agent (liver cancer cell line): better tumor suppressive effect than as a single agent

CNC(=O)c1c(C)oc2cc(Oc3ncnc4cc(OC)c(OC)cc34)ccc12 [fruquintinib]
tumor suppressive effect in combination with the SGLT1 inhibitor compared with single agent (liver cancer cell line): better tumor suppressive effect than as a single agent

Cc1cc2c(F)c(Oc3ncnn4cc(OC[C@@H](C)OC(=O)[C@H](C)N)c(C)c34)ccc2[nH]1 [brivanib alaninate]
tumor suppressive effect in combination with the SGLT1 inhibitor compared with single agent (liver cancer cell line): better tumor suppressive effect than as a single agent

CNC(=O)c1cc(COc2nnc(Nc3ccc(Cl)cc3)c3ccoc23)ccn1 [telatinib]
tumor suppressive effect in combination with the SGLT1 inhibitor compared with single agent (liver cancer cell line): better tumor suppressive effect than as a single agent

COC(=O)c1ccc2c(c1)NC(=O)/C2=C(\Nc1ccc(N(C)C(=O)CN2CCN(C)CC2)cc1)c1ccccc1 [nintedanib]
tumor suppressive effect in combination with the SGLT1 inhibitor compared with single agent (liver cancer cell line): better tumor suppressive effect than as a single agent

CCS(=O)(=O)O.COC(=O)c1ccc2c(c1)NC(=O)/C2=C(\Nc1ccc(N(C)C(=O)CN2CCN(C)CC2)cc1)c1ccccc1 [nintedanib ethanesulfonate salt]
tumor suppressive effect in combination with the SGLT1 inhibitor compared with single agent (liver cancer cell line): better tumor suppressive effect than as a single agent

vitamin E
tumor suppressive effect in combination with the SGLT1 inhibitor compared with single agent (liver cancer cell line): better tumor suppressive effect than as a single agent

Cc1cc(Nc2cc(N3CCN(C)CC3)nc(/C=C/c3ccccc3)n2)n[nH]1 [ENMD-2076]
tumor suppressive effect in combination with the SGLT1 inhibitor compared with single agent (liver cancer cell line): better tumor suppressive effect than as a single agent

COc1cc2nccc(Oc3ccc(NC(=O)NC4CC4)c(Cl)c3)c2cc1C(N)=O [lenvatinib mesylate]
tumor suppressive effect in combination with the SGLT1 inhibitor compared with single agent (liver cancer cell line): better tumor suppressive effect than as a single agent

COc1cc2nccc(Oc3ccc(NC(=O)C4(C(=O)Nc5ccc(F)cc5)CC4)cc3)c2cc1OC [cabozantinib malate]
tumor suppressive effect in combination with the SGLT1 inhibitor compared with single agent (liver cancer cell line): better tumor suppressive effect than as a single agent

O=C1c2c(O)cc(O)cc2O[C@H](c2ccc(O)c(O)c2)[C@H]1O [taxifolin]
tumor suppressive effect in combination with the SGLT1 inhibitor compared with single agent (liver cancer cell line): better tumor suppressive effect than as a single agent

Cc1cc2c(F)c(Oc3ncnn4cc(OC[C@@H](C)O)c(C)c34)ccc2[nH]1 [brivanib]
tumor suppressive effect in combination with the SGLT1 inhibitor compared with single agent (liver cancer cell line): better tumor suppressive effect than as a single agent

cediranib maleate
tumor suppressive effect in combination with the SGLT1 inhibitor compared with single agent (liver cancer cell line): better tumor suppressive effect than as a single agent

CNC(=O)c1cc(Oc2ccc(NC(=O)Nc3ccc(Cl)c(C(F)(F)F)c3)c(F)c2)ccn1 [regorafenib]
tumor suppressive effect in combination with the SGLT1 inhibitor compared with single agent (liver cancer cell line): better tumor suppressive effect than as a single agent

COCCNCc1ccc(-c2cc3nccc(Oc4ccc(NC(=O)C5(C(=O)Nc6ccc(F)cc6)CC5)cc4F)c3s2)nc1 [sitravatinib]
tumor suppressive effect in combination with the SGLT1 inhibitor compared with single agent (liver cancer cell line): better tumor suppressive effect than as a single agent

COc1cc2c(Oc3ccc4[nH]c(C)cc4c3F)ccnc2cc1OCC1(N)CC1 [anlotinib (AL3818) dihydrochloride]
tumor suppressive effect in combination with the SGLT1 inhibitor compared with single agent (liver cancer cell line): better tumor suppressive effect than as a single agent

COc1cc2c(Oc3ccc4[nH]c(C)cc4c3F)ncnc2cc1OCCCN1CCCC1 [cediranib]
tumor suppressive effect in combination with the SGLT1 inhibitor compared with single agent (liver cancer cell line): better tumor suppressive effect than as a single agent

CCOc1ccc(Cc2cc([C@@H]3O[C@H](SC)[C@@H](O)[C@H](O)[C@H]3O)ccc2Cl)cc1 [sotagliflozin]
sensitisation of the transplanted tumor to the growth inhibitory effect of apatinib [1]: sensitive to the growth inhibitory effect of apatinib
